Like-named read-outs stand apart in the source and are kept apart here.
Columns and labels:
[1] = target: T1, aromatase (microsomes from the human placenta) (Homo sapiens, UniProt P11511); experiment: Aromatase inhibition in vitro, tritiated water method, human placenta microsomes; format: biochemical
T1 construct: using microsomes from the human placenta as source of the enzyme; from tissue; host or cells: human placenta microsomes
T1 sequence (P11511 1-503): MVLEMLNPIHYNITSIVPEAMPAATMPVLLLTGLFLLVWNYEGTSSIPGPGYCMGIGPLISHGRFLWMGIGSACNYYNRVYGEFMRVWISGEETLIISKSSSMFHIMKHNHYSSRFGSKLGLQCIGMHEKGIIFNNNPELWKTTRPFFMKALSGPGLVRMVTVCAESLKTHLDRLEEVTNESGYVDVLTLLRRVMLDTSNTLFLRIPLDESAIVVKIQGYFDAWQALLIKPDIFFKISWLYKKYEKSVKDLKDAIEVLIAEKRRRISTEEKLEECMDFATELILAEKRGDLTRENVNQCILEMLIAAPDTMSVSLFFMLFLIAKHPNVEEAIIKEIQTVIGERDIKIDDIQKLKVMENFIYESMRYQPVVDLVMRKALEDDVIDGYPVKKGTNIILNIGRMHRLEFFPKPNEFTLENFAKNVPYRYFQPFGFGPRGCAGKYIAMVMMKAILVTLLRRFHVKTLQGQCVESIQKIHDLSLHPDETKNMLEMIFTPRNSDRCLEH

aromatase (e) = aromatase (e) (UniProt O46512); format: biochemical; conditions: value marked (e); read-out: Activity In vitro IC50(nM), (e)
Sequence of aromatase (e) (O46512 whole entry): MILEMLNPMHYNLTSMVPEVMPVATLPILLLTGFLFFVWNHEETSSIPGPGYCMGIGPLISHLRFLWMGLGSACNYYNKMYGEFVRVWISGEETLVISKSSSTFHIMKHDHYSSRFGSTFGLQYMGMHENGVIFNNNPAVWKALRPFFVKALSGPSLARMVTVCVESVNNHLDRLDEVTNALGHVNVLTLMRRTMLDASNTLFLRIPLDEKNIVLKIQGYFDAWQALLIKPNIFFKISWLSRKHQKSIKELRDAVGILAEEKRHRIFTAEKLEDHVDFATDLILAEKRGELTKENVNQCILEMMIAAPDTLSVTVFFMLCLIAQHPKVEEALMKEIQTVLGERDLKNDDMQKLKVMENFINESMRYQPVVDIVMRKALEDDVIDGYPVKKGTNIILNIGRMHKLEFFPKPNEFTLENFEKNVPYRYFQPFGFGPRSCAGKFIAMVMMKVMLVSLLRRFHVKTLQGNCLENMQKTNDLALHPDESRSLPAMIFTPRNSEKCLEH

[2] = tested on: uterine hypertrophy induced by androstenedione; experiment: Activity in vivo: inhibition of uterine hypertrophy induced by androstenedione; parameters: species or system rat (Sprague-Dawley); conditions: Rattus norvegicus, 96 h, immature female rats, androstenedione 30 mg/kg for 4 days, read-out: % inhibition to doses (μg/Kg); for inhibition in vivo at 0.001 mg/kg: dose 1 μg/Kg; for inhibition in vivo at 0.003 mg/kg: dose 3 μg/Kg; for inhibition in vivo at 0.01 mg/kg: dose 10 μg/Kg; for inhibition in vivo at 0.1 mg/kg: dose 100 μg/Kg; for inhibition in vivo at 1 mg/kg: dose 1000 μg/Kg
Experimental: The activity in vivo of aromatase inhibition by compounds of formula (I) according to the invention has been tested according to the model established by Bharnagar et al. (1990).
In general, immature female rats of the Sprague-Dawley line of a weight ranging from 40 to 50 g have been treated with a dose of androstenedione at 30 mg/kg for 4 days, in the absence or in the presence of doses of various compounds of formula (I).
Four hours after administration of an aromatase inhibitor, the rats were sacrificed. Their uteruses were removed, cleared of adhering fat and conjunctive tissue, next the uteruses were weighed (wet weight). The dry weight of the uteruses was determined the following day after a step of drying for one night at 80° C.

[3] = value without (h)/(e) mark, read-out: Activity In vitro IC50
[4] = value marked (h), read-out: Activity In vitro IC50(nM), (h)

| Molecule | IC50 [1, 3] | inhibition in vivo at 0.01 mg/kg [2] | other results |
| --- | --- | --- | --- |
| Cn1c(=O)oc2ccc(C(c3ccc(Cl)cc3)n3cncn3)cc21 (centres unmarked) [PCH196] | 24.9 nM |  |  |
| O=C1CSc2cc(C(c3ccccc3)n3ccnc3)ccc2N1 (centres unmarked) [PCH227, 7-[1H-Imidazol-1-yl(phenyl)methyl]-1,4-benzothiazin-3(4H)-one] | 55.1 nM |  |  |
| O=C1COc2cc(C(c3ccccc3)n3ccnc3)ccc2N1 (centres unmarked) [PCH211] | 74.4 nM |  |  |
| O=c1[nH]c2ccc(C(c3ccccc3)n3ccnc3)cc2o1 (centres unmarked) [PCH10, 6-[1H-Imidazol-1-yl(phenyl)methyl]-1,3-benzoxazol-2(3H)-one] |  |  | IC50 [1, 4]: 84.6 nM; IC50 (aromatase (e)): 103 nM |
| CN1C(=O)CSc2cc(C(c3ccc(C#N)cc3)n3ccnc3)ccc21 (centres unmarked) [PCH240] | 5.38 nM |  |  |
| Cn1c(=O)oc2cc(C(c3ccccc3)n3ccnc3)ccc21 (centres unmarked) [AL22, 6-[1H-Imidazol-1-yl(phenyl)methyl]-3-methyl-1,3-benzoxazol-2(3H)-one] |  |  | IC50 [1, 4]: 320 nM; IC50 (aromatase (e)): 340 nM |
| Cn1c(=O)oc2cc(C(c3ccncc3)n3ccnc3)ccc21 (centres unmarked) [PCH30] |  |  | IC50 [1, 4]: 38 nM; IC50 (aromatase (e)): 477 nM |
| Cn1c(=O)sc2cc(C(c3ccccc3)n3ccnc3)ccc21 (racemic) [(E1)PCH28] |  |  | IC50 (aromatase (e)): 24.9 nM |
| N#Cc1ccc(C(c2ccc(C#N)cc2)n2cncn2)cc1 [Letrozole, reference compound] |  | 90% | inhibition in vivo at 0.001 mg/kg [2]: 66%; inhibition in vivo at 0.003 mg/kg [2]: 74%; inhibition in vivo at 0.005 mg/kg ([2]; dose 5 μg/Kg): 91% |
| CN1C(=O)COc2ccc(C(c3ccccc3)n3ccnc3)cc21 (centres unmarked) [PCH213] | 5.64 nM | 3% | inhibition in vivo at 0.001 mg/kg [2]: 0%; inhibition in vivo at 0.1 mg/kg [2]: 5% |
| CCn1c(=O)sc2cc(C(c3ccc([N+](=O)[O-])cc3)n3cncn3)ccc21 (centres unmarked) [PCH243, 3-Ethyl-6-[(4-nitrophenyl)(1H-1,2,4-triazol-1-yl)methyl]-1,3-benzothiazol-2(3H)-one] | 3.99 nM |  |  |
| CN1C(=O)CSc2cc(C(c3ccc(C#N)cc3)n3cncn3)ccc21 (centres unmarked) [PCH231] | 56.6 nM |  |  |
| Cn1c(=O)sc2cc(C(c3ccc(C#N)cc3)n3ccnc3)ccc21 (racemic) [PCH165 (−)CD4] | 4.94 nM |  |  |
| N#Cc1ccc(C(c2ccc3c(c2)NC(=O)CO3)n2ccnc2)cc1 (centres unmarked) [PCH225] | 9.9 nM |  |  |
| CN1C(=O)COc2ccc(C(c3ccc(C#N)cc3)n3cncn3)cc21 (centres unmarked) [PCH223] |  | 22% | inhibition in vivo at 0.001 mg/kg [2]: 4%; inhibition in vivo at 0.1 mg/kg [2]: 66% |
| Cn1c(=O)sc2cc(C(c3ccc(C#N)cc3)n3ccnc3)ccc21 (racemic) [PCH165 (+)CD4] | 8.81 nM |  |  |
| N#Cc1ccc(C(c2ccc3[nH]c(=O)sc3c2)n2ccnc2)cc1 (centres unmarked) [PC11215] | 4.04 nM | 56% | inhibition in vivo at 0.001 mg/kg [2]: 0%; inhibition in vivo at 0.1 mg/kg [2]: 90% |
| CCn1c(=O)sc2cc(C(c3ccc(C#N)cc3)n3ccnc3)ccc21 (centres unmarked) [PCH241] | 4.29 nM | 16% | inhibition in vivo at 0.001 mg/kg [2]: 18%; inhibition in vivo at 0.003 mg/kg [2]: 37% |
| N#Cc1ccc(C(c2ccc3oc(=O)[nH]c3c2)n2ccnc2)cc1 (centres unmarked) [PC11128] | 5.83 nM | 29% | inhibition in vivo at 0.001 mg/kg [2]: 29%; inhibition in vivo at 0.1 mg/kg [2]: 53% |
| Cn1c(=O)oc2cc(C(c3ccccc3)n3cncn3)ccc21 (centres unmarked) [PCH20, 3-Methyl-6-[phenyl(1H-1,2,4-triazol-1-yl)methyl]-1,3-benzoxazol-2(3H)-one] |  |  | IC50 [1, 4]: > 3000 nM |
| CN1C(=O)COc2ccc(C(c3ccc(C#N)cc3)n3ccnc3)cc21 (centres unmarked) [PCH222] | 3.44 nM | 32% | inhibition in vivo at 0.001 mg/kg [2]: 0%; inhibition in vivo at 0.003 mg/kg [2]: 22% |
| O=C1COc2ccc(C(c3ccccc3)n3ccnc3)cc2N1 (centres unmarked) [PCH218] | 65.5 nM |  |  |

| Molecule | IC50 [1, 3] | inhibition in vivo at 0.01 mg/kg [2] | other results |
| --- | --- | --- | --- |
| O=c1[nH]c2cc(C(c3ccc(Cl)cc3)n3cncn3)ccc2o1 (centres unmarked) [PCH195] | 17.1 nM |  |  |
| Cn1c(=O)sc2cc(C(c3ccc(C#N)cc3)n3cncn3)ccc21 (centres unmarked) [PCH158] | 8.71 nM | 56% | inhibition in vivo at 0.001 mg/kg [2]: 54% |
| Cn1c(=O)oc2cc(C(c3cccnc3)n3ccnc3)ccc21 (centres unmarked) [PCH116] |  |  | IC50 [1, 4]: 33.7 nM; IC50 (aromatase (e)): 34.6 nM |
| Cn1c(=O)sc2ccc(C(c3ccccc3)n3cncn3)cc21 (centres unmarked) [PCH134] | 179 nM |  |  |
| CN1C(=O)COc2cc(C(c3ccccc3)n3ccnc3)ccc21 (centres unmarked) [PCH19, 4-Methyl-7-[1H-imidazol-1-yl(phenyl)methyl]-1,4-benzoxazin-3(4H)-one] |  |  | IC50 [1, 4]: 52.5 nM; IC50 (aromatase (e)): 59.9 nM |
| O=c1[nH]c2cc(C(c3ccccc3)n3cncn3)ccc2s1 (centres unmarked) [PCH132] | 178 nM |  |  |
| Cn1c(=O)oc2cc(C(c3ccccc3)n3cnnc3)ccc21 (centres unmarked) |  |  | IC50 [1, 4]: > 3000 nM |
| Cn1c(=O)sc2cc(C(c3ccc(C#N)cc3)n3cnnn3)ccc21 (centres unmarked) [PCH248] | 11.8 nM |  |  |
| N#Cc1ccc(C(c2ccc3c(c2)SCC(=O)N3)n2cncn2)cc1 (centres unmarked) [PCH230] | 34.8 nM | 2% | inhibition in vivo at 0.1 mg/kg [2]: 22%; inhibition in vivo at 1 mg/kg [2]: 74% |
| Cn1c(=O)sc2cc(C(c3ccc(C#N)cc3)n3ccnc3)ccc21 (racemic) [PCH165 (+/−) CD4] | 4.54 nM | 23% | inhibition in vivo at 0.001 mg/kg [2]: 22%; inhibition in vivo at 0.1 mg/kg [2]: 66% |
| Cn1c(=O)oc2ccc(C(c3ccccc3)n3cncn3)cc21 (centres unmarked) [PCH183, 3-Methyl-5-[1H-1,2,4-triazol-1-yl(phenyl)methyl]-1,3-benzoxazol-2(3H)-one] | 1810 nM |  |  |
| N#Cc1ccc(C(c2ccc3c(c2)SCC(=O)N3)n2ccnc2)cc1 (centres unmarked) [PCH229] | 13.8 nM | 11% | inhibition in vivo at 0.1 mg/kg [2]: 42%; inhibition in vivo at 1 mg/kg [2]: 83% |
| Cn1c(=O)sc2cc(C(c3ccccc3)n3ccnc3)ccc21 (racemic) [(E2) PCH28] |  |  | IC50 (aromatase (e)): 22.6 nM |
| Cn1c(=O)oc2ccc(C(c3ccc(Cl)cc3)n3cncn3)cc21 (centres unmarked) [PCH160, 5-[(4-Chlorophenyl)(1H-1,2,4-triazol-1-yl)methyl]-3-methyl-1,3-benzoxazol-2(3H)-one] | 18.7 nM |  |  |
| Cn1c(=O)sc2cc(C(c3ccccc3)n3ccnc3)ccc21 (racemic) [(+/−)PCH28, 6-[1H-Imidazol-1-yl(phenyl)methyl]-3-methyl-1,3-benzothiazol-2(3H)-one] |  | 13% | IC50 (aromatase (e)): 23.4 nM; inhibition in vivo at 0.1 mg/kg [2]: 25%; inhibition in vivo at 1 mg/kg [2]: 75% |
| Cn1c(=O)oc2cc(C(c3ccc(Cl)cc3)n3ccnc3)ccc21 (centres unmarked) [PCH15, 6-[(4-Chlorophenyl)(1H-imidazol-1-yl)methyl]-3-methyl-1,3-benzoxazol-2(3H)-one] |  |  | IC50 [1, 4]: > 2000 nM |
| O=c1[nH]c2cc(C(c3ccncc3)n3ccnc3)ccc2o1 (centres unmarked) [PC11129] | 26.8 nM |  |  |
| Cn1c(=O)sc2cc(C(c3cccc(C#N)c3)n3cncn3)ccc21 (centres unmarked) [PCH258] | 31.7 nM |  |  |
| CCn1c(=O)sc2cc(C(c3ccc(C#N)cc3)n3cncn3)ccc21 (centres unmarked) [PCH260] | 4.49 nM | 50% | inhibition in vivo at 0.001 mg/kg [2]: 32%; inhibition in vivo at 0.1 mg/kg [2]: 90% |
| 5-[(4-Cyanophenyl)(1H-1,2,4-triazol-1-yl)methyl]-6-methoxy-1,3-benzoxazol-2(3H)-one [GCA37] | 328 nM |  |  |
| COc1cc2oc(=O)[nH]c2cc1C(c1ccc(C#N)cc1)n1ccnc1 (centres unmarked) [GCA36] | 19.9 nM |  |  |
| Cn1c(=O)sc2cc(C(c3ccc([N+](=O)[O-])cc3)n3cncn3)ccc21 (centres unmarked) [PCH259] | 3.05 nM | 63% | inhibition in vivo at 0.001 mg/kg [2]: 31%; inhibition in vivo at 0.1 mg/kg [2]: 88% |

— patent US20070054899A1 (priority 2003, published 2007)
